Measurements reported in patent publication US9169223B2, “Functionalised antifouling compounds and use thereof” (Agency for Science, Technology and Research, priority 2010, dated 2015).
≈ marks a conversion by molar mass, not a printed value. Like-named read-outs stand apart in the source and are kept apart here.

Columns and labels:
[1] = test system: barnacle cyprids; assay: Settlement assay with barnacle cyprids; assay type: in vivo, Amphibalanus amphitrite; conditions: for TR (LD50/ED50): therapeutic ratio, LD50 (nauplii) / ED50 (cyprids); for IC50: Amphibalanus amphitrite, 24 h
Method: Biological assays were conducted with larval barnacles. Barnacles are dominant and tenacious members of marine fouling communities, and often serve as a substrate for less resistant organisms. Therefore, historically they have been used as a model organism for antifouling studies. To determine the biological response of larvae to test compounds, two bioassays were performed: settlement (using settlement stage cyprids), and toxicity (using nauplii).
(§1) Stock solutions of each compound were made at 50 mg/ml. Pure compounds were diluted in DMSO and sonicated. Stock solutions were stored at −20° C. in 4 ml amber screw cap vials until use. For bioassays, a small amount of stock solution was diluted in 1 μm filtered seawater (in a glass scintillation vial). The solution was then sonicated for 10 minutes. To obtain the desired concentration range, serial dilutions of the test solution were made. As control, a serial dilution of the equivalent amounts of DMSO in seawater was used.
Nauplii were cultured as described above, and then reared at 25° C. on an algal mixture of 1:1 v/v of Tetraselmis suecica and Chaetoceros muelleri (approximately density 5×10^5 cells per ml). Under these conditions, nauplii typically metamorphose to cyprids in 5 days. Cyprids were aged at 4° C. for 2 days.
Settlement assays were conducted in 7 ml neutral glass vials (Samco® T103/V1; 34×23 mm diameter). For assays, each solution was made at twice the desired final concentration; 0.5 ml of this solution was transferred to vials. To each vial, cyprids were added by transferring 0.5 ml filtered seawater containing 20-40 aged cyprids. As in toxicity assays: each compound at each concentration was run in triplicate with cyprids from a single batch; two controls (filtered seawater and DMSO) were run along with each assays; and the overall assay was conducted twice, using two different batches of cyprids.
Assays were conducted for 24 hours, after which time the number of settled cyprids, the number of free swimming (unsettled) cyprids, and the number of dead cyprids were counted for each vial. Both metamorphosed, juvenile barnacles and cyprids that had committed to settlement (glued themselves to the vial), but had not yet metamorphosed, were counted as ‘settled’. Data was expressed as percent settlement. […] If ED50 could not be calculated using probit analysis, values were extrapolated based on plotted data.

[2] = test system: stage II naupliar larvae of the barnacle Amphibalanus amphitrite; assay: Toxicity assay with barnacle nauplii; assay type: in vivo
Method: Biological assays were conducted with larval barnacles. Barnacles are dominant and tenacious members of marine fouling communities, and often serve as a substrate for less resistant organisms. Therefore, historically they have been used as a model organism for antifouling studies. To determine the biological response of larvae to test compounds, two bioassays were performed: settlement (using settlement stage cyprids), and toxicity (using nauplii). Procedures followed methods standard in the field, which were first described by Rittschof et al. (1992).
as §1
Toxicity assays employed stage II naupliar larvae of the barnacle Amphibalanus amphitrite (previously Balanus amphitrite: Pitombo, 2004). Assay procedures were modified from Rittschof et al. (1992). Adult A. amphitrite were collected from inter-tidal areas near the Kranji mangrove, Singapore. Larval culture was based on Rittschof et al. (1984). Following collection, nauplii were concentrated for use in bioassays by placing a fiber optic light source at one side of the container, and pipetting from the resulting dense cloud of nauplii.
In order to determine LD50 values for each compound, compounds were tested over a range of concentrations between 0-50 μg/ml. For each assay, each compound at each concentration was tested in triplicate with a single batch of nauplii. The overall assay was conducted twice, using two different batches of nauplii. Two controls were run along with each assay (in triplicate): filtered seawater only, and DMSO at […] (since DMSO was used as a solvent for test compounds, this concentration is equivalent to the concentration of DMSO in the highest test compound concentration).
For assays, approximately 20 nauplii (in 50 μl filtered seawater) were added to 1 ml test solution or control, in a 2 ml glass vial (La Pha Pack® PN 11-14-0544). Assays were run for 22-24 hours at 25-27° C. After this time, living and dead nauplii were counted using a Bogorov tray. Nauplii that were approaching death were scored as dead. Data for all assays was combined and LD50 was calculated (where possible) using a probit analysis (Libermann, 1983). If LD50 could not be calculated using probit analysis, values were extrapolated based on plotted data.

[3] = anti-settlement, barnacle cyprids, 24 hours, concentration causing 50% reduction in settlement vs controls
[4] = Amphibalanus amphitrite (barnacle), stage II naupliar larvae, in vivo
[5] = anti-settlement, barnacle cyprids, 24 hours, concentration causing 50% reduction in settlement vs controls, read-out: ED50 (the source's name)

| SMILES | ED50 [1, 3] | TR (LD50/ED50) [1] | LD50 [2, 4] | IC50 [1, 5] | IC50 ([1]; read-out: ED50) | LD50 ([2]; toxicity, barnacle nauplii, 22-24 hours, 0-50 μg/ml) |
| --- | --- | --- | --- | --- | --- | --- |
| CCCCC(C(=O)N1CCCCC1)c1ccc(OC)cc1OC (single isomer, unassigned) [Compound 15.6] | 9.12 µg/mL (≈ 28.5 µM) | 3.64 | 33.21 µg/mL | – | – | – |
| CCCCC(C(=O)N1CCCCC1)c1ccccc1CO (single isomer, unassigned) [Compound 16.1] | 4.11 µg/mL (≈ 14.2 µM) | >12.17 | >50 µg/mL | – | – | – |
| CCCCC(C(=O)N1CCCCC1)c1ccccc1 (centres unmarked) [Compound 12.1, reference compound] | – | 6.07 | 9.11 µg/mL | 1.5 µg/mL (≈ 5.78 µM) | – | – |
| CCCCC(CCCC)C(=O)N1CCCCC1 [Compound 12.2, reference compound] | – | 4.92 | 9.83 µg/mL | 2 µg/mL (≈ 8.35 µM) | – | – |
| CCCCC(C(=O)N1CCCCC1)c1ccc(OC)cc1 (centres unmarked) [Compound 15.1, 2-(4-methoxy)phenyl-(1-piperidin-1-yl)hexanone] | – | 120.79 | 22.95 µg/mL | 0.19 µg/mL (≈ 0.656 µM) | – | – |
| CCCCC(C(=O)N1CCCCC1)c1cccc(OC)c1 (centres unmarked) [Compound 15.2] | – | >17.12 | >25 µg/mL | 1.46 µg/mL (≈ 5.04 µM) | – | – |
| CCCCC(C(=O)N1CCCCC1)c1ccccc1OC (centres unmarked) [Compound 15.3] | – | 1.29 | 3.67 µg/mL | 2.85 µg/mL (≈ 9.85 µM) | – | – |
| CCCCC(C(=O)N1CCCCC1)c1cc(OC)cc(OC)c1 (centres unmarked) [Compound 15.4] | – | 2.5 | 8.22 µg/mL | 3.29 µg/mL (≈ 10.3 µM) | – | – |
| CCCCC(C(=O)N1CCCCC1)c1cc(OC)ccc1OC (centres unmarked) [Compound 15.5] | – | 4.01 | 8.66 µg/mL | 2.16 µg/mL (≈ 6.76 µM) | – | – |
| CCCCC(C(=O)N1CCCCC1)c1ccc(OC(C)=O)cc1 (centres unmarked) [Compound 16.4, 4-(1-oxo-1-(piperidin-1-yl)hexan-2-yl)phenyl acetate] | – | 118.26 | 27.2 µg/mL | 0.23 µg/mL | – | – |
| CCCCC(C(=O)N1CCCCC1)c1ccc(O)cc1 (centres unmarked) [Compound 16.5, 2-(4-hydroxyphenyl)-1-(piperidin-1-yl)hexan-1-one] | – | 90.26 | 17.15 µg/mL | 0.19 µg/mL (≈ 0.69 µM) | – | – |
| CCCCC(C(=O)N1CCCCC1)c1ccc(OCCO)cc1 (centres unmarked) [Compound 16.6, 2-(4-(2-hydroxyethoxy)phenyl)-1-(piperidin-1-yl)hexan-1-one] | – | >5.41 | >50 µg/mL | 9.25 µg/mL (≈ 29 µM) | – | – |
| CCCCC(C(=O)N1CCCCC1)c1ccc(OCC(=O)OC)cc1 (centres unmarked) [Compound 16.7, Methyl 2-(4-(1-oxo-1-(piperidin-1-yl)hexan-2-yl)phenoxy)acetate] | – | 0.91 | 24.58 µg/mL | 26.9 µg/mL (≈ 77.4 µM) | – | – |
| CCCCC(C(=O)N1CCCCC1)c1ccc(OCCOC(C)=O)cc1 (centres unmarked) [Compound 16.8, 2-(4-(1-oxo-1-(piperidin-1-yl)hexan-2-yl)phenoxy)ethyl acetate] | – | 1.72 | >50 µg/mL | 29.1 µg/mL | – | – |
| CCCCC(C(=O)N1CCCCC1)c1ccc(OCC(=O)O)cc1 (centres unmarked) [Compound 16.9, 2-(4-(1-oxo-1-(piperidin-1-yl)hexan-2-yl)phenoxy)acetic acid] | – | – | >50 µg/mL | > 50 µg/mL | – | – |
| CCCCC(C(=O)N1CCCCC1)c1ccc(OCC[Si](C)(C)C)cc1 (centres unmarked) [Compound 16.10, 1-(piperidin-1-yl)-2-(4-(2-(trimethylsilyl)ethoxy)phenyl)hexan-1-one] | – | >14.33 | – | – | 3.49 µg/mL (≈ 9.29 µM) | >50 µg/mL |
| C=CC(=O)Oc1ccc(C(CCCC)C(=O)N2CCCCC2)cc1 (centres unmarked) [Compound 16.11, 4-(1-oxo-1-(piperidin-1-yl)hexan-2-yl)phenyl acrylate] | – | 4.29 | 6.57 µg/mL | 1.53 µg/mL (≈ 4.64 µM) | – | – |
| C=CCCCCC(C(=O)N1CCCCC1)c1ccc(OC)cc1 (centres unmarked) [Compound 17.1, 2-(4-methoxyoxyphenyl)-1-(piperidin-1-yl)oct-7-en-1-one] | – | 3.91 | 9.27 µg/mL | 2.37 µg/mL (≈ 7.51 µM) | – | – |
| CCCCC(C(=O)N(C)C)c1ccc(OC)cc1 (centres unmarked) [Compound 17.2, 2-(4-methoxyphenyl)-N,N-dimethylhexanamide] | – | >5.75 | >50 µg/mL | 8.69 µg/mL (≈ 34.9 µM) | – | – |
| C=CCCCCC(C(=O)N(C)C)c1ccc(OC)cc1 (centres unmarked) [Compound 17.3, 2-(4-methoxyphenyl)-N,N-dimethyloct-7-enamide] | – | 6.53 | 18.61 µg/mL | 2.85 µg/mL (≈ 10.3 µM) | – | – |
| CCCCC(C(=O)N1CCCCC1)c1ccccc1O (centres unmarked) [Compound 17.4] | – | 22.49 | 14.62 µg/mL | 0.65 µg/mL (≈ 2.36 µM) | – | – |
| CCCCC(C(=O)N1CCCCC1)c1cccc(O)c1 (centres unmarked) [Compound 17.5] | – | 7.31 | 25.14 µg/mL | 3.44 µg/mL (≈ 12.5 µM) | – | – |
| C=CCCCCC(C(=O)N1CCCCC1)c1ccc(O)cc1 (centres unmarked) [Compound 17.6, 2-(4-hydroxyphenyl)-1-(piperidin-1-yl)oct-7-en-1-one] | – | 4.59 | 9.82 µg/mL | 2.14 µg/mL (≈ 7.1 µM) | – | – |
| CCCCC(C(=O)N(C)C)c1ccc(O)cc1 (centres unmarked) [Compound 17.7, 2-(4-hydroxyphenyl)-N,N-dimethylhexanamide] | – | >1.46 | >50 µg/mL | 34.1 µg/mL (≈ 145 µM) | – | – |
| C=CCCCCC(C(=O)N(C)C)c1ccc(O)cc1 (centres unmarked) [Compound 17.8, 2-(4-hydroxyphenyl)-N,N-dimethyloct-7-enamide] | – | 2.90 | 12.46 µg/mL | 4.29 µg/mL (≈ 16.4 µM) | – | – |
| CCCCC(C(=O)N1CCCCC1)c1ccc(C(=O)O)cc1 (centres unmarked) [Compound 17.9, 4-(1-oxo-1-(piperidin-1-yl)hexan-2-yl)benzoic acid] | – | 1 | >50 µg/mL | > 50 µg/mL | – | – |
